Several values for one entry are separate records, joined by “and”; a condition that tells them apart may be missing. Equal entries are not always repeated. Inconclusive results and toxic doses are left out.
System: L1210 leukemia ip in BDF1 mice, survival T/C
Assay: NCI In Vivo Anticancer Drug Screen. Data for tumor model L1210 Leukemia (intraperitoneal) in B6D2F1 (BDF1) mice
Settings: endpoint: mean survival time, higher = longer survival
Summary of the method: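 Ratio derived from survival: compound-dosed mice over vehicle-dosed mice, all bearing a transplantable tumor.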

[1] = dose: 100.0 mg/kg/injection, schedule: Q04DX003 (ip), vehicle: Klucel (hydroxypropylcellulose) (HPC)
[2] = dose: 200.0 mg/kg/injection, schedule: Q04DX003 (ip), vehicle: Klucel (hydroxypropylcellulose) (HPC)
[3] = dose: 200.0 mg/kg/injection, schedule: Q01DX009 (ip), vehicle: saline with Tween-80
[4] = dose: 400.0 mg/kg/injection, schedule: Q01DX009 (ip), vehicle: saline with Tween-80
[5] = dose: 100.0 mg/kg/injection, schedule: Q01DX001 (ip), vehicle: saline
[6] = dose: 200.0 mg/kg/injection, schedule: Q01DX001 (ip), vehicle: saline
[7] = dose: 400.0 mg/kg/injection, schedule: Q01DX001 (ip), vehicle: saline
[8] = dose: 100.0 mg/kg/injection, schedule: Q01DX009 (ip), vehicle: saline
[9] = dose: 100.0 mg/kg/injection, schedule: Q04DX003 (ip), vehicle: saline

What does the source list for `CCOC(=O)c1cc(C(=O)OCC)c(C)nc1C`?
T/C (dose: 75.0 mg/kg/injection, schedule: Q01DX001 (ip), vehicle: saline): 96 % of control; T/C (dose: 75.0 mg/kg/injection, schedule: Q01DX009 (ip), vehicle: saline): 94 % of control; T/C [1]: 96 % of control; T/C (dose: 150.0 mg/kg/injection, schedule: Q01DX001 (ip), vehicle: saline): 98 % of control; T/C (dose: 150.0 mg/kg/injection, schedule: Q01DX009 (ip), vehicle: saline): 94 % of control; T/C [2]: 93 % of control; T/C (dose: 300.0 mg/kg/injection, schedule: Q01DX001 (ip), vehicle: saline): 100 % of control; T/C (dose: 300.0 mg/kg/injection, schedule: Q01DX009 (ip), vehicle: saline): 91 % of control; T/C (dose: 400.0 mg/kg/injection, schedule: Q04DX003 (ip), vehicle: Klucel (hydroxypropylcellulose) (HPC)): 93 % of control

What does the source list for `O=c1c(O)c(-c2ccccc2)oc2ccccc12`?
T/C (dose: 100.0 mg/kg/injection, schedule: Q01DX001 (ip), vehicle: carboxymethylcellulose (CMC)): 90 % of control; T/C (dose: 200.0 mg/kg/injection, schedule: Q01DX001 (ip), vehicle: carboxymethylcellulose (CMC)): 97 % of control; T/C (dose: 400.0 mg/kg/injection, schedule: Q01DX001 (ip), vehicle: carboxymethylcellulose (CMC)): 97 % of control

Which T/C (dose: 12.5 mg/kg/injection, schedule: Q01DX009 (ip), vehicle: saline with Tween-80) does the source give for `Cc1ccc(Cl)cc1NC(=O)Nc1ccc(F)c([N+](=O)[O-])c1` here?
Its T/C is 95 % of control and 90 % of control.

And the T/C (dose: 25.0 mg/kg/injection, schedule: Q01DX009 (ip), vehicle: saline with Tween-80)?
Its T/C is 88 % of control and 92 % of control.

And the T/C (dose: 25.0 mg/kg/injection, schedule: Q04DX003 (ip), vehicle: saline with Tween-80)?
Its T/C is 90 % of control.

And the T/C (dose: 50.0 mg/kg/injection, schedule: Q01DX009 (ip), vehicle: saline with Tween-80)?
The T/C was 92 % of control.

And the T/C (dose: 50.0 mg/kg/injection, schedule: Q04DX003 (ip), vehicle: saline with Tween-80)?
Its T/C is 87 % of control.

And the T/C (dose: 100.0 mg/kg/injection, schedule: Q04DX002 (ip), vehicle: saline with Tween-80)?
Its T/C is 96 % of control and 89 % of control.

And the T/C [3]?
Its T/C is 93 % of control and 100 % of control.

And the T/C (dose: 200.0 mg/kg/injection, schedule: Q04DX002 (ip), vehicle: saline with Tween-80)?
Its T/C is 101 % of control and 91 % of control.

And the T/C [4]?
Its T/C is 93 % of control and 104 % of control.

What about the T/C (dose: 400.0 mg/kg/injection, schedule: Q04DX002 (ip), vehicle: saline with Tween-80) of the same molecule?
The T/C was 93 % of control and 94 % of control.

Which results are given for `NS(=O)(=O)c1ccc(NC(=O)c2ccc(C(=O)Nc3ccc(S(N)(=O)=O)cc3)cc2)cc1`?
T/C [5]: 100 % of control; T/C [6]: 100 % of control; T/C [7]: 100 % of control

`O=C(O)C(Cc1cnc[nH]1)Nc1nc(NC(Cc2cnc[nH]2)C(=O)O)[nH]c(=O)n1` (centres undefined) was tested. Which T/C (dose: 6.25 mg/kg/injection, schedule: Q01DX009 (ip), vehicle: Klucel (hydroxypropylcellulose) (HPC)) did it give?
The T/C was 101 % of control.

What about the T/C (dose: 12.5 mg/kg/injection, schedule: Q01DX009 (ip), vehicle: Klucel (hydroxypropylcellulose) (HPC)) of the same molecule?
The T/C was 108 % of control.

And the T/C (dose: 25.0 mg/kg/injection, schedule: Q01DX009 (ip), vehicle: Klucel (hydroxypropylcellulose) (HPC))?
The T/C was 115 % of control.

How did the T/C (dose: 100.0 mg/kg/injection, schedule: Q04DX002 (ip), vehicle: Klucel (hydroxypropylcellulose) (HPC)) turn out when `Cc1cc(C)cc(OCC#CCN(C)c2ccccc2)c1` was run?
The T/C was 99 % of control.

And the T/C (dose: 200.0 mg/kg/injection, schedule: Q04DX002 (ip), vehicle: Klucel (hydroxypropylcellulose) (HPC))?
Its T/C is 99 % of control.

And the T/C (dose: 400.0 mg/kg/injection, schedule: Q04DX002 (ip), vehicle: Klucel (hydroxypropylcellulose) (HPC))?
Its T/C is 96 % of control.

Which T/C (dose: 44.0 mg/kg/injection, schedule: Q04DX003 (ip), vehicle: saline) does the source give for `CCOC(=O)N1c2ccccc2C=CC1C#N` (centres undefined) here?
Its T/C is 108 % of control.

What about the T/C (dose: 66.0 mg/kg/injection, schedule: Q04DX003 (ip), vehicle: saline) of the same molecule?
The T/C was 105 % of control.

And the T/C [8]?
The T/C was 93 % of control.

And the T/C [9]?
The T/C was 94 % of control and 96 % of control.

And the T/C (dose: 200.0 mg/kg/injection, schedule: Q01DX009 (ip), vehicle: saline)?
Its T/C is 100 % of control.

And the T/C (dose: 200.0 mg/kg/injection, schedule: Q04DX003 (ip), vehicle: saline)?
Its T/C is 101 % of control and 102 % of control.

What about the T/C (dose: 400.0 mg/kg/injection, schedule: Q01DX009 (ip), vehicle: saline) of the same molecule?
Its T/C is 95 % of control.

And the T/C (dose: 400.0 mg/kg/injection, schedule: Q04DX003 (ip), vehicle: saline)?
Its T/C is 102 % of control.

With `CCCCN(CCCC)C(=O)N(CCCC)CCCC` as the molecule, how does the T/C (dose: 50.0 mg/kg/injection, schedule: Q01DX001 (ip), vehicle: saline with Tween-80) read?
Its T/C is 98 % of control.

What about the T/C (dose: 100.0 mg/kg/injection, schedule: Q01DX001 (ip), vehicle: saline with Tween-80) of the same molecule?
The T/C was 107 % of control.

What about the T/C (dose: 200.0 mg/kg/injection, schedule: Q01DX001 (ip), vehicle: saline with Tween-80) of the same molecule?
The T/C was 101 % of control.

`NC1CC[N-]CC1.NC1CC[N-]CC1.[Cl][Pt+2]([Cl])([Cl])[Cl]` was tested. Which T/C (dose: 12.5 mg/kg/injection, schedule: Q01DX009 (ip), vehicle: saline) did it give?
Its T/C is 101 % of control.

And the T/C (dose: 25.0 mg/kg/injection, schedule: Q01DX009 (ip), vehicle: saline)?
Its T/C is 101 % of control.

What about the T/C (dose: 50.0 mg/kg/injection, schedule: Q01DX009 (ip), vehicle: saline) of the same molecule?
The T/C was 95 % of control.

And the T/C (dose: 50.0 mg/kg/injection, schedule: Q04DX003 (ip), vehicle: saline)?
The T/C was 106 % of control.

And the T/C [8]?
The T/C was 101 % of control.

What about the T/C [9] of the same molecule?
Its T/C is 104 % of control.

Which T/C (dose: 100.0 mg/kg/injection, schedule: Q04DX003 (ip), vehicle: saline with Tween-80) does the source give for `OCCCCCCCCCCCCO` here?
Its T/C is 105 % of control.

And the T/C (dose: 200.0 mg/kg/injection, schedule: Q04DX003 (ip), vehicle: saline with Tween-80)?
The T/C was 94 % of control.

And the T/C (dose: 400.0 mg/kg/injection, schedule: Q04DX003 (ip), vehicle: saline with Tween-80)?
The T/C was 103 % of control.

`CC(C)(CCc1ccccn1)C(=O)C(CCc1ccccn1)CCc1ccccn1` was tested. Which T/C (dose: 222.0 mg/kg/injection, schedule: Q01DX Z (ip), vehicle: saline) did it give?
Its T/C is 110 % of control.

And the T/C (dose: 333.0 mg/kg/injection, schedule: Q01DX Z (ip), vehicle: saline)?
The T/C was 102 % of control.

What about the T/C (dose: 500.0 mg/kg/injection, schedule: Q01DX Z (ip), vehicle: saline) of the same molecule?
The T/C was 96 % of control.

Which results are given for `CCC(=O)OCC1OC(n2cnc3c(=S)nc(N)[nH]c32)C(OC(=O)CC)C1OC(=O)CC` (centres undefined)?
T/C (dose: 0.8 mg/kg/injection, schedule: Q01DX Z (ip), vehicle: carboxymethylcellulose (CMC)): 106 % of control; T/C (dose: 1.3 mg/kg/injection, schedule: Q01DX Z (ip), vehicle: carboxymethylcellulose (CMC)): 110 % of control; T/C (dose: 2.0 mg/kg/injection, schedule: Q01DX Z (ip), vehicle: carboxymethylcellulose (CMC)): 120 % of control; T/C (dose: 8.0 mg/kg/injection, schedule: Q01DX Z (ip), vehicle: carboxymethylcellulose (CMC)): 169 % of control; T/C (dose: 12.0 mg/kg/injection, schedule: Q01DX Z (ip), vehicle: carboxymethylcellulose (CMC)): 151 % of control and 154 % of control; T/C (dose: 18.0 mg/kg/injection, schedule: Q01DX Z (ip), vehicle: carboxymethylcellulose (CMC)): 101 % of control; T/C (dose: 27.0 mg/kg/injection, schedule: Q01DX Z (ip), vehicle: carboxymethylcellulose (CMC)): 156 % of control; T/C (dose: 40.0 mg/kg/injection, schedule: Q01DX Z (ip), vehicle: carboxymethylcellulose (CMC)): 151 % of control

Which results are given for `COc1cc(Cl)ccc1NC(=O)COc1ccc(Cl)cc1`?
T/C (dose: 100.0 mg/kg/injection, schedule: Q01DX009 (ip), vehicle: saline with Tween-80): 92 % of control; T/C [3]: 92 % of control; T/C [4]: 86 % of control

Which T/C [5] does the source give for `CCc1c(C)c2n(c1C)C(=O)C=C2N(CC)CC` here?
The T/C was 106 % of control.

And the T/C [6]?
Its T/C is 102 % of control.

What about the T/C [7] of the same molecule?
The T/C was 96 % of control.

`CCCC(CN(CCN(C)C)Cc1ccccc1)c1ccc(OC)cc1` (centres undefined) was tested. Which T/C [5] did it give?
Its T/C is 101 % of control.

Which T/C [1] does the source give for `O=[N+]([O-])c1cc(S(=O)(=O)F)ccc1S` here?
The T/C was 102 % of control.

What about the T/C [2] of the same molecule?
The T/C was 100 % of control.

Which results are given for `Cc1cc(Cl)c(Cl)cc1NC(=O)Nc1ccccc1F`?
T/C (dose: 100.0 mg/kg/injection, schedule: Q01DX009 (ip), vehicle: other): 89 % of control and 92 % of control; T/C (dose: 200.0 mg/kg/injection, schedule: Q01DX009 (ip), vehicle: other): 89 % of control; T/C (dose: 400.0 mg/kg/injection, schedule: Q01DX009 (ip), vehicle: other): 98 % of control and 90 % of control

With `Oc1cccc2cccnc12.[Cu+].[O-]c1cccc2cccnc12` as the molecule, how does the T/C (dose: 2.5 mg/kg/injection, schedule: Q01DX009 (ip), vehicle: saline) read?
Its T/C is 97 % of control.

What about the T/C (dose: 2.5 mg/kg/injection, schedule: Q04DX003 (ip), vehicle: alcohol) of the same molecule?
The T/C was 98 % of control.

What about the T/C (dose: 5.0 mg/kg/injection, schedule: Q01DX009 (ip), vehicle: saline) of the same molecule?
Its T/C is 108 % of control.

What about the T/C (dose: 5.0 mg/kg/injection, schedule: Q04DX003 (ip), vehicle: alcohol) of the same molecule?
The T/C was 112 % of control.

What about the T/C (dose: 10.0 mg/kg/injection, schedule: Q01DX009 (ip), vehicle: saline) of the same molecule?
The T/C was 98 % of control.

And the T/C (dose: 10.0 mg/kg/injection, schedule: Q04DX003 (ip), vehicle: alcohol)?
Its T/C is 104 % of control.

For `O=C1c2ccccc2C(=O)C1N=Nc1ccccc1`, which T/C (dose: 50.0 mg/kg/injection, schedule: Q01DX001 (ip), vehicle: saline) is on record?
The T/C was 102 % of control.

What about the T/C [5] of the same molecule?
Its T/C is 100 % of control.

What about the T/C [6] of the same molecule?
The T/C was 94 % of control.

And the T/C [7]?
The T/C was 96 % of control.
